Laboratory results from ChEMBL document CHEMBL5724914, “Linking interpersonal differences in gut microbiota composition and drug biotransformation activity” (2024).

Key:
[1] = human gut metagenome, 24 h, 2 µM
[2] = (§1) The drug is tested on WLS-310 corresponding to human gut metagenome with ENA study accession number: PRJEB37062 and ENA sample accession number: ERS12561785 for biotransformation under anaerobic condition. The drug concentrations were measured over 9 timepoints collected between 0 and 24 hours of incubation by liquid-chromatography-coupled mass spectrometry (LC–MS); conditions: 2 µM
[3] = human gut metagenome, 24 h, 2 µM; remark: listed apart in the source
[4] = as §1, with “WLS-240” for “WLS-310”, “ERS12561773” for “ERS12561785”; conditions: 2 µM
[5] = as §1, with “WLS-370” for “WLS-310”, “ERS12561793” for “ERS12561785”; conditions: 2 µM
[6] = as §1, with “WLS-038” for “WLS-310”, “ERS12561745” for “ERS12561785”; conditions: 2 µM
[7] = as §1, with “Z-018” for “WLS-310”, “pig” for “human”, “ERS12561817” for “ERS12561785”; conditions: 2 µM
[8] = as §1, with “Z-003” for “WLS-310”, “pig” for “human”, “ERS12561803” for “ERS12561785”; conditions: 2 µM
[9] = human gut metagenome, 24 h, 2 µM; remark: listed apart in the source
[10] = as §1, with “WLS-006” for “WLS-310”, “ERS12561741” for “ERS12561785”; conditions: 2 µM
[11] = as §1, with “Z-025” for “WLS-310”, “rabbit” for “human”, “ERS12561824” for “ERS12561785”; conditions: 2 µM
[12] = human gut metagenome, 24 h, 2 µM; remark: listed apart in the source
[13] = as §1, with “WLS-039” for “WLS-310”, “ERS12561746” for “ERS12561785”; conditions: 2 µM
[14] = as §1, with “WLS-090” for “WLS-310”, “ERS12561753” for “ERS12561785”; conditions: 2 µM
[15] = human gut metagenome, 24 h, 2 µM; remark: listed apart in the source
[16] = as §1, with “WLS-073” for “WLS-310”, “ERS12561749” for “ERS12561785”; conditions: 2 µM
[17] = human gut metagenome, 24 h, 2 µM; remark: listed apart in the source
[18] = as §1, with “WLS-220” for “WLS-310”, “ERS12561769” for “ERS12561785”; conditions: 2 µM
[19] = as §1, with “Z-006” for “WLS-310”, “mouse” for “human”, “ERS12561806” for “ERS12561785”; conditions: 2 µM
[20] = human gut metagenome, 24 h, 2 µM; remark: listed apart in the source
Note: call rule not given here.

Row | Structure (SMILES) | Bacterial Biotransformation [1] | Bacterial Biotransformation [2] | Bacterial Biotransformation [3] | Bacterial Biotransformation [4] | Bacterial Biotransformation [5] | Bacterial Biotransformation [6] | Bacterial Biotransformation [7] | Bacterial Biotransformation [8] | Bacterial Biotransformation [9] | Bacterial Biotransformation [10] | Bacterial Biotransformation [11] | Bacterial Biotransformation [12] | Bacterial Biotransformation [13] | Bacterial Biotransformation [14] | Bacterial Biotransformation [15] | Bacterial Biotransformation [16] | Bacterial Biotransformation [17] | Bacterial Biotransformation [18] | Bacterial Biotransformation [19] | Bacterial Biotransformation [20]
1 | CC(C)NCC(O)COc1ccc(COCCOC(C)C)cc1.CC(C)NCC(O)COc1ccc(COCCOC(C)C)cc1.O=C(O)/C=C/C(=O)O (stereo not given) [BISOPROLOL FUMARATE] | Compound NOT metabolized | Compound NOT metabolized | Compound NOT metabolized | Compound metabolized | Compound NOT metabolized | Compound NOT metabolized | Compound NOT metabolized | Compound metabolized | Compound NOT metabolized | Compound metabolized | Compound metabolized | Compound metabolized | Compound NOT metabolized | Compound metabolized | Compound NOT metabolized | Compound NOT metabolized | Compound NOT metabolized | Compound metabolized | Compound NOT metabolized | Compound metabolized
2 | CN1C(=O)CCS(=O)(=O)C1c1ccc(Cl)cc1 (stereo not given) [CHLORMEZANONE] | Compound NOT metabolized | Compound NOT metabolized | Compound NOT metabolized | Compound metabolized | Compound NOT metabolized | Compound NOT metabolized | Compound NOT metabolized | Compound NOT metabolized | Compound NOT metabolized | Compound metabolized | Compound NOT metabolized | Compound NOT metabolized | Compound NOT metabolized | Compound metabolized | Compound NOT metabolized | Compound NOT metabolized | Compound NOT metabolized | Compound NOT metabolized | Compound NOT metabolized | Compound NOT metabolized
3 | CN1CCN(C2=Nc3cc(Cl)ccc3Nc3ccccc32)CC1 [CLOZAPINE] | Compound NOT metabolized | Compound metabolized | Compound NOT metabolized | Compound metabolized | Compound metabolized | Compound NOT metabolized | Compound NOT metabolized | Compound NOT metabolized | Compound metabolized | Compound NOT metabolized | Compound NOT metabolized | Compound metabolized | Compound metabolized | Compound metabolized | Compound NOT metabolized | Compound NOT metabolized | Compound NOT metabolized | Compound metabolized | Compound NOT metabolized | Compound metabolized
4 | COc1cc2c(c(OC)c1OC)-c1ccc(OC)c(=O)cc1[C@@H](NC(C)=O)CC2 [COLCHICINE] | Compound NOT metabolized | Compound metabolized | Compound NOT metabolized | Compound metabolized | Compound NOT metabolized | Compound NOT metabolized | Compound NOT metabolized | Compound NOT metabolized | Compound NOT metabolized | Compound metabolized | Compound NOT metabolized | Compound metabolized | Compound metabolized | Compound NOT metabolized | Compound metabolized | Compound metabolized | Compound NOT metabolized | Compound metabolized | Compound NOT metabolized | Compound metabolized

Results, then the compound that gave them:

Row | Bacterial Biotransformation [1] | Bacterial Biotransformation [2] | Bacterial Biotransformation [3] | Bacterial Biotransformation [4] | Bacterial Biotransformation [5] | Bacterial Biotransformation [6] | Bacterial Biotransformation [7] | Bacterial Biotransformation [8] | Bacterial Biotransformation [9] | Bacterial Biotransformation [10] | Bacterial Biotransformation [11] | Bacterial Biotransformation [12] | Bacterial Biotransformation [13] | Bacterial Biotransformation [14] | Bacterial Biotransformation [15] | Bacterial Biotransformation [16] | Bacterial Biotransformation [17] | Bacterial Biotransformation [18] | Bacterial Biotransformation [19] | Bacterial Biotransformation [20] | Structure (SMILES)
5 | Compound metabolized | Compound metabolized | Compound NOT metabolized | Compound metabolized | Compound metabolized | Compound metabolized | Compound metabolized | Compound metabolized | Compound metabolized | Compound metabolized | Compound metabolized | Compound metabolized | Compound metabolized | Compound metabolized | Compound metabolized | Compound metabolized | Compound NOT metabolized | Compound metabolized | Compound NOT metabolized | Compound metabolized | CCCCCOC(=O)Nc1nc(=O)n([C@@H]2O[C@H](C)[C@@H](O)[C@H]2O)cc1F [CAPECITABINE]
6 | Compound NOT metabolized | Compound NOT metabolized | Compound NOT metabolized | Compound metabolized | Compound metabolized | Compound metabolized | Compound NOT metabolized | Compound NOT metabolized | Compound metabolized | Compound metabolized | Compound NOT metabolized | Compound metabolized | Compound metabolized | Compound NOT metabolized | Compound metabolized | Compound metabolized | Compound NOT metabolized | Compound metabolized | Compound NOT metabolized | Compound metabolized | Cc1ccc(-c2cc(C(F)(F)F)nn2-c2ccc(S(N)(=O)=O)cc2)cc1 [CELECOXIB]
7 | Compound metabolized | Compound metabolized | Compound NOT metabolized | Compound metabolized | Compound metabolized | Compound metabolized | Compound metabolized | Compound metabolized | Compound metabolized | Compound metabolized | Compound metabolized | Compound metabolized | Compound metabolized | Compound metabolized | Compound NOT metabolized | Compound NOT metabolized | Compound metabolized | Compound NOT metabolized | Compound NOT metabolized | Compound metabolized | Clc1ccc(Cn2c(CN3CCCC3)nc3ccccc32)cc1 [CLEMIZOLE]
8 | Compound metabolized | Compound metabolized | Compound metabolized | Compound metabolized | Compound metabolized | Compound metabolized | Compound metabolized | Compound metabolized | Compound metabolized | Compound metabolized | Compound metabolized | Compound metabolized | Compound metabolized | Compound metabolized | Compound metabolized | Compound metabolized | Compound metabolized | Compound metabolized | Compound metabolized | Compound metabolized | CC(=O)OCC(=O)[C@@]12N=C(C)O[C@@H]1C[C@H]1[C@@H]3CCC4=CC(=O)C=C[C@]4(C)[C@H]3[C@@H](O)C[C@@]12C [DEFLAZACORT]
